# Experimental data taken from patent US7214669B2, “Tetracycline derivatives and methods of use thereof” (Tetragenex Pharmaceuticals, Inc., priority 2001, dated 2007).
# Where “and” joins values, the source holds several entries; their conditions need not be identical. Equal entries are not always repeated. Structures can show the parent of a compound that is named as a salt.
# Columns and labels:
# Assay in all cases: Membrane Invasion Culture System (MICS) chemo-invasion assay
# Assay type in all cases: cell-based
# Settings in all cases: 24 hours, + = increased invasiveness
# [1] = system: RPMI-8226 human myeloma cancer cells
# Description: (§1) Another objective was to analyze the effects of specific, tetracycline derived compounds on the in-vitro chemo-invasive potential of: • C8161 human melanoma cells • MDA-MB-231 human breast cancer cells • PC3 human prostate cancer cells • RPM18226 human myeloma cancer cells • Ark human myeloma cancer cells • Arp-1 human myeloma cancer cells
# (§2) The Membrane Invasion Culture System (MICS) in vitro chemo-invasion assay was chosen to measure changes in the invasive potential of specific human cancer cells in response to tetracycline derived compounds. Stock solutions of each compound were hydrated in water containing 2% DMSO and pH 10.0. Upon solubilization, HCl was added to the solution to establish a pH of 7.5–8.0. This solution was then wrapped in foil and kept at 4° C. during the 24 hours of assay. Fresh compound was prepared for each assay. The in vitro chemoinvasion analyses for tumor cell invasiveness are performed using the Membrane Invasion Culture System (MICS) as previously described.
# (§3) The MICS system is a thermally treated plastic manifold system consisting of two matched sets of plates containing fourteen wells, 13 mm in diameter. Interposed between these plates was a polycarbonate filter containing 10 μm pores and coated with a defined matrix composed of human laminin/collagen IV/gelatin that formed a 35 μm thick barrier between the top and bottom sections of the wells in MICS. Prior to placing this barrier in place, the lower wells were filled with serum-free RPMI culture medium made 50% in conditioned medium obtained from 2-day-old cultures of human fibroblasts which had been cleared of cells and cellular debris by either centrifugation, or filtering through a 0.45 μm sterile filter. The barrier was then placed on the lower wells and fresh serum-free medium added to the upper wells after assembly of the system. Fifty thousand tumor cells were then added to the wells either in the presence of the compound, or the DMSO vehicle (the controls). Of the 12 assay wells on each manifold, 3 randomized wells acted as controls, 3 wells received 1 μg/ml of compound, 3 received 10 μg/ml and 3 received 25 μg/ml. After 24 hours, cells and media were removed from the lower wells and replaced by phosphate buffered saline plus 2 mM EDTA. This solution was used to remove all cells from the lower well, and this wash was added to the recovered cells plus medium from the same well. These samples were then collected onto a polylysine containing polycarbonate membrane containing 3 μm pores using a Dot-Blot manifold system. These collection filters were then fixed in methanol, and stained using Wright's stain (Leukostat staining kit) in situ. The filters were then mounted on microscope slides with microscope immersion oil (which reduced the light refraction from the pores) and 5 microscopic fields were counted to calculate the number of cells which invaded through the membrane over the 24 hour period. These numbers were then statistically analyzed as discussed below.
# [2] = system: C8161 human melanoma cells
# Description: as §1, §2, §3
# [3] = system: MDA-MB-231 human breast cancer cells
# Description: as §1, §2, §3
# [4] = system: PC-3 ML human prostate cancer cells
# Description: as §1, §2, §3
SMILES,"percent inhibition, RPMI-8226 (Multiple Myeloma) ([1]; 1 ug/mL)","percent inhibition, RPMI-8226 (Multiple Myeloma) ([1]; 10 ug/mL)","percent inhibition, RPMI-8226 (Multiple Myeloma) ([1]; 25 ug/mL)","percent inhibition, C8161 (Melanoma) ([2]; 1 ug/mL)","percent inhibition, C8161 (Melanoma) ([2]; 10 ug/mL)","percent inhibition, C8161 (Melanoma) ([2]; 25 ug/mL)","percent inhibition, MDA-MB-231 (Breast) ([3]; 1 ug/mL)","percent inhibition, MDA-MB-231 (Breast) ([3]; 10 ug/mL)","percent inhibition, MDA-MB-231 (Breast) ([3]; 25 ug/mL)","percent inhibition, PC-3 ML (Prostrate) ([4]; 1 ug/mL)","percent inhibition, PC-3 ML (Prostrate) ([4]; 10 ug/mL)","percent inhibition, PC-3 ML (Prostrate) ([4]; 25 ug/mL)","percent inhibition, RPMI-8226 (Multiple Myeloma) ([1]; 10 ug/mL, hydrochloride)","percent inhibition, RPMI-8226 (Multiple Myeloma) ([1]; 25 ug/mL, hydrochloride)","percent inhibition, PC-3 ML (Prostrate) ([4]; 1 ug/mL, hydrochloride)","percent inhibition, PC-3 ML (Prostrate) ([4]; 10 ug/mL, hydrochloride)","percent inhibition, PC-3 ML (Prostrate) ([4]; 25 ug/mL, hydrochloride)"
"CC1c2ccc(-c3ccc(F)cc3)c(O)c2C(=O)C2=C(O)C3(O)C(=O)C(C(N)=O)=C(O)C(N(C)C)C3C(O)C21 (centres unmarked) [Compound 51, 9-(4-fluorophenyl)-6-deoxy-5-hydroxytetracycline]",14%,+26^B percent,+2%,+9%,+31^B percent,+122^B percent,+15^B percent,+18%,25^B percent,+4%,+13%,4%,–,–,–,–,–
"CN(C)C1C(O)=C(C(N)=O)C(=O)C2(O)C(O)=C3C(=O)c4c(O)ccc(Cl)c4C(C)(O)C3CC12 (stereo not drawn) [Compound 52, 4-Epi-7-Chlorotetracycline hydrochloride]",–,–,–,5%,15%,30%,5%,12%,52^B percent,–,–,–,26^B percent and 33^B percent,68^B percent and 46^B percent,52^B percent and 31^B percent,68^B percent and 48^B percent,70^B percent and 63^B percent
"CN(C)[C@@H]1C(=O)C(C(N)=O)=C(O)[C@@]2(O)C(=O)C3=C(O)c4c(O)cccc4C[C@H]3C[C@@H]12.Cl [Compound 53, 6-Demethyl-6-deoxytetracycline HCl]",+95^B percent,18%,84^B percent,+40^B percent,+158^B percent,83^B percent,9%,49^B percent,83^B percent,29^B percent,21%,45^B percent,–,–,–,–,–
